Measured values as given in PMC7956753, “Development of ^18F-Labeled Radiotracers for PET Imaging of the Adenosine A2A Receptor: Synthesis, Radiolabeling and Preliminary Biological Evaluation” (International Journal of Molecular Sciences, 2021).
“And” between values parts separate entries of the source, which are not always exact repeats. Equal entries are not always repeated. Where two headings read alike, the source gives them in different places.

Assays:
human A1R = target: T1, human A1R (Homo sapiens, UniProt P30542); assay: In vitro radioligand binding assay with [3H]DPCPX on membranes of CHO-K1 cells stably transfected with human A1R
T1 sequence (P30542 1-326): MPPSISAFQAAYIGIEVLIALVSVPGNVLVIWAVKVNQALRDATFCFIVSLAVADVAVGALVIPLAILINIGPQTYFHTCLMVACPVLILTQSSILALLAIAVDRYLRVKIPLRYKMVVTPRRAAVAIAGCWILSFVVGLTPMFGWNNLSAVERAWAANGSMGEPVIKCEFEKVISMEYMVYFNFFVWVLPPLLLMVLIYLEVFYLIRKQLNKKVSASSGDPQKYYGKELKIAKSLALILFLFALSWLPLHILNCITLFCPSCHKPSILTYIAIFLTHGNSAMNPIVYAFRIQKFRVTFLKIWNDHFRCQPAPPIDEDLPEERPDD

human A2AR = human A2AR (Homo sapiens, UniProt P29274); assay: In vitro radioligand binding assay with [3H]ZM241385 on membranes of CHO-K1 cells stably transfected with human A2AR; conditions: for Ki: in-house, mean ± standard deviation (n ≥ 3) or mean (n = 2, single values in brackets), Cheng-Prusoff
[1] = read-out: Ki(hA1R), in-house, mean ± standard deviation (n ≥ 3) or mean (n = 2, single values in brackets), Cheng-Prusoff

human A2AR, sequence (P29274 whole entry): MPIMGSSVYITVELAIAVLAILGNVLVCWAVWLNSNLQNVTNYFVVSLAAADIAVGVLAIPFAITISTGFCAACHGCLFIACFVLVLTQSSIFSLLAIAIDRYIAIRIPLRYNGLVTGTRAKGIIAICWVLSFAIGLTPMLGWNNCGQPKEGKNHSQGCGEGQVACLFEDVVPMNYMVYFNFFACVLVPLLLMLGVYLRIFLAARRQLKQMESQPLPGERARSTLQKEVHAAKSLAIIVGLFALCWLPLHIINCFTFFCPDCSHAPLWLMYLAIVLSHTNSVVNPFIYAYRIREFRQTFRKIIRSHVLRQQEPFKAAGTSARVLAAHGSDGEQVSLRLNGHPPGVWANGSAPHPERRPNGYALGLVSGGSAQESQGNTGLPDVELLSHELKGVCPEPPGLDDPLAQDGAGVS

Compound	Ki (human A1R)	Ki (human A2AR; Ki(hA2AR))	also measured
N#Cc1cc(F)cc(Cn2ncc3c(-c4ccco4)nc(N)nc32)c1 [PPY14, 3-((6-Amino-4-(furan-2-yl)-1H-pyrazolo[3,4-d]pyrimidin-1-yl)methyl)-5-fluoro-benzonitrile]	954 nM	291 nM	
Nc1nc(-c2ccco2)c2cnn(Cc3c(F)cccc3Br)c2n1 [PPY11, 1-(2-Bromo-6-fluorobenzyl)-4-(furan-2-yl)-1H-pyrazolo[3,4-d]pyrimidin-6-amine]	162 ± 22 nM	2.35 ± 0.3 nM	
Nc1nc(-c2ccco2)c2cnn(Cc3cccc(Cl)c3)c2n1 [PPY, reference compound]			Ki (human A2AR; read-out: Ki(hA2AR)): 1 ± 0.09 nM
2-((6-Amino-4-(furan-2-yl)-1H-pyrazolo[3,4-d]pyrimidin-1-yl)methyl)-5-fluoro-benzonitrile [PPY12]			Ki (human A1R; [1]): 810 nM; Ki (human A2AR; read-out: Ki(hA2AR)): 66.7 nM
Nc1nc(-c2ccco2)c2cnn(Cc3ccccc3)c2n1 [PPY22, 1-Benzyl-4-(furan-2-yl)-1H-pyrazolo[3,4-d]pyrimidin-6-amine]		1.68 ± 0.14 nM	
Nc1nc(-c2ccco2)c2cnn(Cc3ccccc3F)c2n1 [PPY2, 1-(2-Fluorobenzyl)-4-(furan-2-yl)-1H-pyrazolo[3,4-d]pyrimidin-6-amine]		2.13 ± 0.42 nM	increase of A2AR binding affinity compared with PPY1 (human A2AR; ortho- vs para-fluorine): 2.5 fold; Ki (human A2AR; read-out: Ki(hA2AR)): 2.1 nM
Nc1nc(-c2ccco2)c2cnn(C(=O)c3ccccc3F)c2n1 [PPY21, (6-Amino-4-(furan-2-yl)-1H-pyrazolo[3,4-d]pyrimidin-1-yl)(2-fluorophenyl)-methanone]	1550 nM	283 nM	
Nc1nc(-c2ccco2)c2cnn(CCc3ccccc3F)c2n1 [PPY19, 1-(2-Fluorophenethyl)-4-(furan-2-yl)-1H-pyrazolo[3,4-d]pyrimidin-6-amine]	245 nM	107 nM	
Nc1nc(-c2ccco2)c2cnn(Cc3cccc(OCCCF)c3)c2n1 [PPY18, 1-(3-(3-Fluoropropoxy)benzyl)-4-(furan-2-yl)-1H-pyrazolo[3,4-d]pyrimidin-6-amine]		76.8 ± 12.9 nM	
N#Cc1cccc(F)c1Cn1ncc2c(-c3ccco3)nc(N)nc21 [PPY15, 2-((6-Amino-4-(furan-2-yl)-1H-pyrazolo[3,4-d]pyrimidin-1-yl)methyl)-3-fluoro-benzonitrile]	470 nM	12.3 nM	
Nc1nc(-c2ccco2)c2cnn(Cc3cccc(CCF)c3)c2n1 [PPY16, 1-(3-(2-Fluoroethyl)benzyl)-4-(furan-2-yl)-1H-yrazolo[3,4-d]pyrimidin-6-amine]	69.2 ± 32.8 nM	1.63 ± 0.22 nM	
Nc1nc(-c2ccco2)c2cnn(Cc3cccc(F)c3)c2n1 [PPY3, 1-(3-Fluorobenzyl)-4-(furan-2-yl)-1H-pyrazolo[3,4-d]pyrimidin-6-amine]	132 nM	3.6 ± 1.29 nM	decrease of A2AR binding affinity compared with PPY (human A2AR; chlorine (PPY) exchanged for fluorine): 3 fold
Nc1nc(-c2ccco2)c2cnn(Cc3ccc(Br)cc3F)c2n1 [PPY8, 1-(4-Bromo-2-fluorobenzyl)-4-(furan-2-yl)-1H-pyrazolo[3,4-d]pyrimidin-6-amine]	31.3 ± 15.5 nM	0.93 ± 0.1 nM	increase of A2AR binding affinity compared with PPY2 (human A2AR; additional bromine): 2 fold
1-((6-Fluoropyridin-3-yl)methyl)-4-(furan-2-yl)-1H-pyrazolo[3,4-d]pyrimidin-6-amine [PPY5]			Ki (human A1R; [1]): 689 nM; Ki (human A2AR; read-out: Ki(hA2AR)): 25.7 ± 0.9 nM
(6-Amino-4-(furan-2-yl)-1H-pyrazolo[3,4-d]pyrimidin-1-yl)(2-fluorophenyl)-methanone [PPY20]			Ki (human A1R; [1]): 1420 nM; Ki (human A2AR; read-out: Ki(hA2AR)): 275 nM
Nc1nc(-c2ccco2)c2cnn(Cc3cccnc3F)c2n1 [PPY4, 1-((2-Fluoropyridin-3-yl)methyl)-4-(furan-2-yl)-1H-pyrazolo[3,4-d]pyrimidin-6-amine]	822 nM	47.8 ± 4.8 nM	
Nc1nc(-c2ccco2)c2cnn(Cc3ccnc(F)c3)c2n1 [PPY7, 1-((2-Fluoropyridin-4-yl)methyl)-4-(furan-2-yl)-1H-pyrazolo[3,4-d]pyrimidin-6-amine]	2880 nM	161 ± 19 nM	
1-((6-Fluoropyridin-2-yl)methyl)-4-(furan-2-yl)-1H-pyrazolo[3,4-d]pyrimidin-6-amine [PPY6]			Ki (human A1R; [1]): 566 nM; Ki (human A2AR; read-out: Ki(hA2AR)): 27.1 ± 2.6 nM
Nc1nc(-c2ccco2)c2cnn(Cc3cc(F)cc(Br)c3)c2n1 [PPY10, 1-(3-Bromo-5-fluorobenzyl)-4-(furan-2-yl)-1H-pyrazolo[3,4-d]pyrimidin-6-amine]	160 nM	14.2 nM	
Nc1nc(-c2ccco2)c2cnn(Cc3ccc(F)cc3)c2n1 [PPY1, 1-(4-Fluorobenzyl)-4-(furan-2-yl)-1H-pyrazolo[3,4-d]pyrimidin-6-amine]	220 nM	5.3 nM and 5.29 nM	
Nc1nc(-c2ccco2)c2cnn(Cc3cccc(OCCF)c3)c2n1 [PPY17, 1-(3-(2-Fluoroethoxy)benzyl)-4-(furan-2-yl)-1H-pyrazolo[3,4-d]pyrimidin-6-amine]	215 ± 38 nM	4.5 ± 0.99 nM	
Nc1nc(-c2ccco2)c2cnn(Cc3ccc(F)cc3Br)c2n1 [PPY9, 1-(2-Bromo-4-fluorobenzyl)-4-(furan-2-yl)-1H-pyrazolo[3,4-d]pyrimidin-6-amine]		34.1 nM	
